Laboratory results as given in PubChem BioAssay (NCI).
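Protocol summary: plate cells (96-well), add compound at 5 concentrations, incubate 48 h, interpolate endpoints linearly. The concentration for 50% growth inhibition is given as GI50. TGI: total growth inhibition.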

Experiments:
Assay in all cases: inhibition of tumour cell growth, NCI panel, 48 h
[1] = test system: MOLT-4 leukemia
[2] = test system: PC-3 prostate
[3] = test system: MDA-MB-435
[4] = test system: TK-10 renal
[5] = test system: IGROV1 ovarian
[6] = test system: K-562 leukemia
[7] = test system: NCI-H522 lung
[8] = test system: KM12 colon
[9] = test system: A549 NSCLC
[10] = test system: M14 melanoma
[11] = test system: MDA-N
[12] = test system: UO-31 renal
[13] = test system: SK-MEL-28 melanoma
[14] = test system: SF-268 CNS
[15] = test system: HOP-92 NSCLC
[16] = test system: T-47D breast
[17] = test system: CAKI-1 renal
[18] = test system: HL-60(TB) leukemia
[19] = test system: HT29 colon
[20] = test system: HS 578T breast
[21] = test system: SNB-75 CNS
[22] = test system: U251 CNS
[23] = test system: RPMI-8226 leukemia
[24] = test system: SF-295 CNS
[25] = test system: UACC-62 melanoma
[26] = test system: SN12C renal
[27] = test system: ACHN renal
[28] = test system: 786-0 renal
[29] = test system: SK-OV-3 ovarian
[30] = test system: SK-MEL-5 melanoma
[31] = test system: SK-MEL-2 melanoma
[32] = test system: OVCAR-4 ovarian
[33] = test system: CCRF-CEM leukemia
[34] = test system: SW-620 colon
[35] = test system: OVCAR-8 ovarian
[36] = test system: UACC-257 melanoma
[37] = test system: SF-539 CNS
[38] = test system: SR leukemia
[39] = test system: MDA-MB-231 breast
[40] = test system: DU-145 prostate
[41] = test system: EKVX NSCLC
[42] = test system: NCI-H460 lung
[43] = test system: HOP-62 NSCLC
[44] = test system: OVCAR-3 ovarian
[45] = test system: MALME-3M melanoma
[46] = test system: LOX IMVI melanoma
[47] = test system: HCT-15 colon
[48] = test system: SNB-19 CNS
[49] = test system: A498 renal
[50] = test system: BT-549 breast
[51] = test system: COLO 205 colon
[52] = test system: NCI-H23 lung
[53] = test system: RXF 393 renal
[54] = test system: HCC-2998 colon
[55] = test system: MCF7 breast
[56] = test system: OVCAR-5 ovarian
[57] = test system: NCI/ADR-RES ovarian
[58] = test system: HCT-116 colon
[59] = test system: NCI-H226 lung

`COc1ccc(/C=C2\OC(=O)C(Cl)=C2c2ccc(OC)cc2)cc1` was tested, and the TGI [1] was over 100 µM, the TGI [2] was over 100 µM and the TGI [3] was over 100 µM. It also gave a TGI [4] of over 100 µM, a TGI [5] of over 100 µM and a TGI [6] of over 100 µM. It also gave a TGI [7] of over 100 µM, a TGI [8] of over 100 µM and a TGI [9] of over 100 µM. It also gave a TGI [10] of over 100 µM, a TGI [11] of over 100 µM and a TGI [12] of over 100 µM. The TGI [13] was over 100 µM, the TGI [14] was over 100 µM and the TGI [15] was 70.1 µM. The TGI [16] was over 100 µM, the TGI [17] was over 100 µM and the TGI [18] was over 100 µM. The TGI [19] was over 100 µM, the TGI [20] was over 100 µM and the TGI [21] was over 100 µM. The TGI [22] was over 100 µM, the TGI [23] was over 100 µM and the TGI [24] was over 100 µM. It also gave a TGI [25] of over 100 µM, a TGI [26] of over 100 µM and a TGI [27] of over 100 µM. For the same molecule, the TGI [28] was over 100 µM, the TGI [29] was over 100 µM and the TGI [30] was over 100 µM. The TGI [31] was over 100 µM, the TGI [32] was over 100 µM and the TGI [33] was over 100 µM. The TGI [34] was over 100 µM, the TGI [35] was over 100 µM and the TGI [36] was over 100 µM. It also gave a TGI [37] of over 100 µM, a TGI [38] of over 100 µM and a TGI [39] of over 100 µM. The TGI [40] was over 100 µM, the TGI [41] was over 100 µM and the TGI [42] was over 100 µM. For the same molecule, the TGI [43] was over 100 µM, the TGI [44] was over 100 µM and the TGI [45] was over 100 µM. For the same molecule, the TGI [46] was over 100 µM, the TGI [47] was over 100 µM and the TGI [48] was over 100 µM. The TGI [49] was over 100 µM, the TGI [50] was over 100 µM and the TGI [51] was over 100 µM.

Work on `COc1ccc(C(=O)/C=C/c2ccc(OCC(=N)N)cc2)cc1OC` yielded a TGI [2] of over 10 µM, a TGI [52] of over 10 µM and a TGI [4] of over 10 µM. The TGI [5] was over 10 µM, the TGI [6] was over 10 µM and the TGI [8] was 8.31 µM. For the same molecule, the TGI [9] was over 10 µM, the TGI [10] was over 10 µM and the TGI [11] was over 10 µM. It also gave a TGI [13] of over 10 µM, a TGI [14] of over 10 µM and a TGI [16] of over 10 µM. For the same molecule, the TGI [17] was over 10 µM, the TGI [18] was 4.82 µM and the TGI [19] was over 10 µM. It also gave a TGI [21] of 9.98 µM, a TGI [23] of over 10 µM and a TGI [24] of over 10 µM. The TGI [53] was over 10 µM, the TGI [25] was over 10 µM and the TGI [26] was over 10 µM. The TGI [28] was over 10 µM, the TGI [29] was over 10 µM and the TGI [30] was over 10 µM. The TGI [33] was 8.86 µM, the TGI [54] was over 10 µM and the TGI [34] was over 10 µM. It also gave a TGI [55] of over 10 µM, a TGI [35] of over 10 µM and a TGI [36] of over 10 µM. The TGI [38] was 4.39 µM, the TGI [39] was over 10 µM and the TGI [40] was over 10 µM. The TGI [41] was over 10 µM, the TGI [43] was over 10 µM and the TGI [45] was over 10 µM. It also gave a TGI [46] of over 10 µM, a TGI [47] of over 10 µM and a TGI [51] of over 10 µM.

Molecule `N#CSc1ncnc2nc[nH]c12` has a GI50 [1] of 4.28 µM, a TGI [1] of over 100 µM and a GI50 [2] of 28.7 µM. It also gave a TGI [2] of over 100 µM, a GI50 [52] of 9.96 µM and a TGI [52] of over 100 µM. The GI50 [3] was 3.65 µM, the TGI [3] was over 100 µM and the GI50 [4] was 4.17 µM. It also gave a TGI [4] of over 100 µM, a GI50 [5] of 35.1 µM and a TGI [5] of over 100 µM. It also gave a GI50 [6] of 1.24 µM, a TGI [6] of over 100 µM and a GI50 [56] of 17.2 µM. The TGI [56] was over 100 µM, the GI50 [7] was 3.32 µM and the TGI [7] was 25.6 µM. It also gave a GI50 [8] of 3.26 µM, a TGI [8] of over 48.5 µM and a GI50 [57] of 5.68 µM. For the same molecule, the TGI [57] was over 100 µM, the GI50 [9] was 50.2 µM and the TGI [9] was over 100 µM. The GI50 [10] was 1.78 µM, the TGI [10] was over 100 µM and the GI50 [58] was 3.04 µM. For the same molecule, the TGI [58] was over 100 µM, the GI50 [12] was 10.4 µM and the TGI [12] was over 100 µM. It also gave a GI50 [13] of 44.4 µM, a TGI [13] of over 100 µM and a GI50 [14] of 4.24 µM. For the same molecule, the TGI [14] was over 41.1 µM, the GI50 [15] was 6.91 µM and the TGI [15] was over 94 µM. The GI50 [16] was 2.25 µM, the TGI [16] was over 80 µM and the GI50 [17] was 2.01 µM. For the same molecule, the TGI [17] was 30.1 µM, the GI50 [18] was 5.5 µM and the TGI [18] was over 100 µM. The GI50 [19] was 9.69 µM, the TGI [19] was over 100 µM and the GI50 [20] was 4.79 µM. It also gave a TGI [20] of over 92.6 µM, a GI50 [21] of 7.19 µM and a TGI [21] of over 100 µM. The GI50 [22] was 32.4 µM, the TGI [22] was over 100 µM and the GI50 [23] was 4.13 µM. For the same molecule, the TGI [23] was over 100 µM, the GI50 [24] was 2.53 µM and the TGI [24] was over 72.6 µM. For the same molecule, the GI50 [53] was 21.6 µM, the TGI [53] was over 100 µM and the GI50 [25] was 4.1 µM. The TGI [25] was over 100 µM, the GI50 [26] was 51.7 µM and the TGI [26] was over 100 µM. It also gave a GI50 [27] of 9.1 µM, a TGI [27] of over 100 µM and a GI50 [28] of 3.53 µM. It also gave a TGI [28] of over 100 µM, a GI50 [29] of 2.42 µM and a TGI [29] of over 100 µM. The GI50 [30] was 15.2 µM, the TGI [30] was over 100 µM and the GI50 [31] was 37.6 µM. It also gave a TGI [31] of over 100 µM, a GI50 [32] of 2.37 µM and a TGI [32] of over 100 µM. It also gave a GI50 [33] of 3.32 µM, a TGI [33] of over 100 µM and a GI50 [54] of 3.9 µM. The TGI [54] was over 100 µM, the GI50 [34] was 7.85 µM and the TGI [34] was over 100 µM. For the same molecule, the GI50 [55] was 2.35 µM, the TGI [55] was over 79.4 µM and the GI50 [35] was 5.72 µM. It also gave a TGI [35] of over 100 µM, a GI50 [36] of 26.2 µM and a TGI [36] of over 100 µM. The GI50 [37] was 4.14 µM, the TGI [37] was over 65.9 µM and the GI50 [38] was 4.02 µM. It also gave a TGI [38] of 32.2 µM, a GI50 [39] of 11.2 µM and a TGI [39] of over 100 µM. It also gave a GI50 [40] of 0.548 µM, a TGI [40] of over 38.7 µM and a GI50 [41] of 41.8 µM. The TGI [41] was over 100 µM, the GI50 [42] was 17.3 µM and the TGI [42] was over 100 µM. It also gave a GI50 [59] of over 100 µM, a TGI [59] of over 100 µM and a GI50 [43] of 2.31 µM. The TGI [43] was over 100 µM, the GI50 [44] was 1.66 µM and the TGI [44] was over 31.6 µM. The GI50 [45] was 10.6 µM, the TGI [45] was over 100 µM and the GI50 [46] was 1.09 µM. For the same molecule, the TGI [46] was over 91.6 µM, the GI50 [47] was 8.82 µM and the TGI [47] was over 100 µM. The GI50 [48] was over 100 µM, the TGI [48] was over 100 µM and the GI50 [49] was 24.1 µM. The TGI [49] was over 100 µM, the GI50 [50] was over 28.7 µM and the TGI [50] was over 100 µM. For the same molecule, the GI50 [51] was 5.31 µM and the TGI [51] was 22 µM.
